# Laboratory results published in the SangsterLogP compilation.
row,logP,SMILES
1,3.22,CCCC(=NOCC)C1C(=O)CC2(CCCC2)OC1=O (centres undefined)
2,4.48,CCCC(=NOCC)C1C(=O)CC2(CCC(CC)CC2)OC1=O (centres undefined)
3,4.07,CCCC(=NOCC)C1C(=O)CC2(CCC(C)CC2)OC1=O (centres undefined)
4,5.3,CCCC(=NOCC)C1C(=O)CC2(CCC(C(C)(C)C)CC2)OC1=O (centres undefined)
5,3.62,CCCC(=NOCC)C1C(=O)CC2(CCCCC2)OC1=O (centres undefined)
6,3.66,CCCC(=NOCC)C1C(=O)CC2(CCC(C)C2)OC1=O (centres undefined)
7,2.9,CCCC(=NOCC)C1C(=O)CC2(CCSCC2)OC1=O (centres undefined)

# More lines, now with the values behind:
row,SMILES,logP
1,CCCC(=NOCC)C1C(=O)CC2(CC(C)CC(C)C2)OC1=O (centres undefined),4.48
2,CCCC(=NOCC)C1C(=O)CC2(C=CCCC2)OC1=O (centres undefined),3.2
3,CCCC(=NOCC)C1C(=O)CC2(CCCCC2C)OC1=O (centres undefined),3.9
4,CC=C(C)C1(C)CC(=O)C(C(CCC)=NOCC)C(=O)O1 (centres undefined),3.4
5,CCCC(=NOCC)C1C(=O)CC(c2ccccc2)(c2ccccc2)OC1=O (centres undefined),4.75
6,CCCC(=NOCC)C1C(=O)CC(C)(C2CC2)OC1=O (centres undefined),3.28
7,CCCC(=NOCC)C1C(=O)CC2(CCCc3ccccc32)OC1=O (centres undefined),5
